Drawing on US12180226B2, “Spirotricycle RIPK1 inhibitors and methods of uses thereof” (Merck Sharp & Dohme LLC, priority 2021, dated 2024), this text covers EC50 for 27 compounds.

Structures can show the parent of a compound that is named as a salt.

The target in this experiment is RIPK1 (recombinant GST-RIPK1 kinase domain, residues 1-327) (Homo sapiens (Human), UniProt Q13546). Briefly: RIPK1-ADP-Glo Enzymatic Assay. The format is biochemical. As to conditions: ADP-Glo; 25 nM GST-RIPK1, 300 μM ATP; assay lower limit ~25 nM; read-out: RIPK1 V0 Ec50. The essentials: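 Luminescent ADP-Glo readout of ATP-to-ADP conversion. Conditions: 25 nM enzyme, 300 μM ATP, 3 μM dephospho-MBP, pH 7.3 HEPES buffer with 20 mM MgCl2; 30 min compound pre-incubation, 150 min reaction. EC50 via four-parameter sigmoidal regression; assay floor ~25 nM.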
RIPK1 (recombinant GST-RIPK1 kinase domain, residues 1-327), sequence (Q13546 1-327): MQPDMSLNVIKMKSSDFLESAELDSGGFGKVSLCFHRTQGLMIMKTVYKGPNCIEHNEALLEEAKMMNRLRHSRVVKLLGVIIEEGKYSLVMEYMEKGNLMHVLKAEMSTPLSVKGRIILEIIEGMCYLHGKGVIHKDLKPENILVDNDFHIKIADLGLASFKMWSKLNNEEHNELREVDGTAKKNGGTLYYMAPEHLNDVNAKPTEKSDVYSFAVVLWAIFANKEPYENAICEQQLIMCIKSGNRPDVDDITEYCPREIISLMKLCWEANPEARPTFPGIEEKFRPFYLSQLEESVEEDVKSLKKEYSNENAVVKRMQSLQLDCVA
For the compound `O=C1N2[C@@H](CC[C@H]2c2cc(F)cc(F)c2)OC12CCN(c1ncc(C3CC3)cn1)CC2` [Example 4.56, (5′S,7a′R)-1-(5-cyclopropylpyrimidin-2-yl)-5′-(3,5-difluorophenyl)tetrahydro-3′H-spiro[piperidine-4,2′-pyrrolo[2,1-b] [1,3]oxazol]-3′-one], the half-maximal effective concentration (EC50) amounted to 565 nM.
On to `O=C1N2[C@@H](CC[C@H]2c2cc(F)cc(F)c2)OC12CCN(c1nccn3ccnc13)CC2` [Example 13.15, (5′S,7a′R)-5′-(3,5-difluorophenyl)-1-(imidazo[1,2-a]pyrazin-8-yl)tetrahydro-3′H-spiro[piperidine-4,2′-pyrrolo[2,1-b]oxazol]-3′-one, TFA salt], for which the EC50 was found to be 188 nM.
Regarding `N#Cc1cccc(C(=O)N2CCC3(CC2)O[C@@H]2CC[C@@H](c4cc(F)cc(F)c4)N2C3=O)c1` [Example 5.17, 3-((5′S,7a′R)-5′-(3,5-difluorophenyl)-3′-oxo-tetrahydro-3′H-spiro [piperidine-4,2′-pyrrolo-[2,1-b]oxazole]-1-carbon-yl)benzonitrile], the half-maximal effective concentration (EC50) stood at 25 nM.
Under `O=C(c1cocn1)N1CCC2(CC1)O[C@@H]1CC[C@@H](c3cc(F)cc(F)c3)N1C2=O` [Example 5.54, (5′S,7a′R)-5′-(3,5-difluoro-phenyl)-1-(oxazole-4-car-bonyl)tetrahydro-3′H-spiro [piperidine-4,2′-pyrrolo-[2,1-b]oxazol]-3′-one] stands 27.2 nM; under `N#Cc1ccc(N2CCC3(CC2)OC2CCC(c4cnccn4)N2C3=O)n2ncnc12` (stereo not drawn) [Example 4.141, 5-[3′-oxo-5′-(pyrazin-2-yl)tetrahydro-1H,3′H-spiro[piperidine-4,2′-pyrrolo[2,1-b] [1,3]oxazol]-1-yl][1,2,4]triazolo[1,5-a] pyridine-8-carbonitrile], below 25 nM.
As for `O=C1N2C(CCC2c2cc(F)cc(F)c2)OC12CCN(c1cc(F)ccn1)CC2` (stereo not drawn) [Example 4.3, 5′-(3,5-difluorophenyl)-1-(4-fluoropyridin-2-yl)tetrahydro-3′H-spiro[piperidine-4,2′-pyrrolo[2,1-b] [1,3]oxazol]-3′-one], the EC50 was below 25 nM.
Turning to `N#Cc1ccc(N2CCC3(CC2)O[C@@H]2CC[C@@H](c4ccccc4)N2C3=O)n2ncc(Cl)c12` [Example 4.182, 3-chloro-7-[(5′S,7a′R)-3′-oxo-5′-phenyltetrahydro-1H,3′H-spiro[piperidine-4,2′-pyrrolo[2,1-b] [1,3]oxazol]-1-yl]pyrazolo[1,5-a] pyridine-4-carbonitrile], the EC50 was below 25 nM.
Under `N#Cc1ccc(C(=O)N2CCC3(CC2)O[C@@H]2CC[C@@H](c4ccccc4)N2C3=O)cc1` [Example 6.151, 4-[(5′S,7a′R)-3′-oxo-5′-phenyltetrahydro-1H,3′H-spiro[piperi-dine-4,2′-pyrrolo[2,1-b][1,3]oxazole]-1-carbonyl]benzonitrile] stands 349 nM; under `O=C1N2[C@@H](CC[C@H]2c2cc(F)cc(F)c2)OC12CCN(c1cncc3nccn13)CC2` [Example 13.8, (5′S,7a′R)-5′-(3,5-difluorophenyl)-1-(imidazo[1,2-a]pyrazin-5-yl)tetrahydro-3′H-spiro[piperidine-4,2′-pyrrolo[2,1-b]oxazol]-3′-one, TFA salt], 664 nM; under `N#Cc1cc(F)cc(C(=O)N2CCC3(CC2)O[C@@H]2CC[C@@H](c4cc(F)cc(F)c4)N2C3=O)c1` [Example 5.15, 3-((5′S,7a′R)-5′-(3,5-difluorophenyl)-3′-oxo-tetrahydro-3′H-spiro [piperidine-4,2′-pyrrolo-[2,1-b]oxazole]-1-carbon-yl)-5-fluorobenzonitrile], 96.8 nM.
Under `O=C1N2[C@@H](CC[C@H]2c2ccccc2)OC12CCN(c1cc(-c3ccccc3)ncn1)CC2` [Example 4.32, (5′S,7a′R)-5′-phenyl-1-(6-phenylpyrimidin-4-yl)tetrahydro-3′H-spiro[piperidine-4,2′-pyrrolo[2,1-b] [1,3]oxazol]-3′-one] stands below 25 nM; under `NC(=O)c1ccc(N2CCC3(CC2)O[C@@H]2CC[C@@H](c4ccccc4F)N2C3=O)n2ncnc12` [Example 4.151, 5-[(5′S,7a′R)-5′-(2-fluorophenyl)-3′-oxotetrahydro-1H,3′H-spiro[piperidine-4,2′-pyrrolo[2,1-b] [1,3]oxazol]-1-yl][1,2,4]triazolo[1,5-a] pyridine-8-carboxamide], below 25 nM.
Under `O=C(c1cc(F)ccc1F)N1CCC2(O[C@@H]3CC[C@@H](c4ccccc4)N3C2=O)C(F)C1` (stereo partly drawn) [Example 6.111, (5′S,7a′R)-1-(2,5-difluorobenzene-1-carbonyl)-3-fluoro-5′-phenyltetrahydro-3′H-spiro[piperidine-4,2′-pyrrolo[2,1-b][1,3]-oxazol]-3′-one] stands below 25 nM; under `O=C(c1cccc(N2CCCC2)n1)N1CCC2(CC1)O[C@@H]1CC[C@@H](c3cc(F)cc(F)c3)N1C2=O` [Example 6.96, (5′S,7a′R)-5′-(3,5-difluorophenyl)-1-[6-(pyrrolidin-1-yl)pyri-dine-2-carbonyl]tetra-hydro-3′H-spiro[piperi-dine-4,2′-pyrrolo[2,1-b][1,3]oxazol]-3′-one], 31.6 nM.
In the case of `O=C1N2[C@@H](CC[C@H]2c2ccccc2)OC12CCN(c1cc(CF)ncn1)CC2` [Example 4.203, (5′S,7a′R)-1-[6-(fluoromethyl)pyrimidin-4-yl]-5′-phenyltetrahydro-3′H-spiro[piperidine-4,2′-pyrrolo[2,1-b] [1,3]oxazol]-3′-one], the EC50 turned out to be 48 nM.
The figure for `CC1CN(c2cc(C#N)ncn2)CCC12O[C@@H]1CC[C@@H](c3ccccc3)N1C2=O` (stereo partly drawn) [Example 4.234, 6-[(4R,5′S,7a′R)-3-methyl-3′-oxo-5′-phenyltetrahydro-1H,3′H-spiro[piperidine-4,2′-pyrrolo[2,1-b] [1,3]oxazol]-1-yl]pyrimidine-4-carbonitrile] is 56.5 nM; for `O=C(c1ccc(F)cc1)N1CCC2(CC1)O[C@@H]1CC[C@@H](c3cc(F)cc(F)c3)N1C2=O` [Example 6.70, (5′S,7a′R)-5′-(3,5-difluorophenyl)-1-(4-fluorobenzene-1-carbonyl)tetrahydro-3′H-spiro[piperidine-4,2′-pyrrolo[2,1-b] [1,3]oxazol]-3′-one] it is below 25 nM; for `Cc1nc(N2CCC3(CC2)O[C@@H]2CC[C@@H](c4ccccc4)N2C3=O)ccc1C#N` [Example 4.74, 2-methyl-6-[(5′S,7a′R)-3′-oxo-5′-phenyltetrahydro-1H,3′H-spiro[piperidine-4,2′-pyrrolo[2,1-b] [1,3]oxazol]-1-yl]pyridine-3-carbonitrile] it is below 25 nM.
The figure for `O=C1N2[C@@H](CC[C@H]2c2ccccc2)OC12CCN(c1ccc(-n3ccnc3)nn1)CC2` [Example 11.18, (5′S,7a′R)-1-[6-(1H-imidazol-1-yl)pyridazin-3-yl]-5′-phenyltetrahydro-3′H-spiro[piperidine-4,2′-pyrrolo[2,1-b][1,3]oxazol]-3′-one] is 93 nM; for `O=C(c1ccccc1)N1CCC2(CC1)O[C@@H]1CC[C@@H](c3cc(F)ccc3F)N1C2=O` [Example 7.2, (5′S,7a′R)-1-(benzenecarbonyl)-5′-(2,5-difluorophenyl)tetrahydro-3′H-spiro[piperidine-4,2′-pyrrolo[2,1-b][1,3]oxazol]-3′-one] it is below 25 nM.
For the compound `CC(F)c1cc(N2CCC3(CC2)O[C@@H]2CC[C@@H](c4ccccc4)N2C3=O)ncn1` (stereo partly drawn) [Example 4.215, (5′S,7a′R)-1-[6-(1-fluoroethyl)pyrimidin-4-yl]-5′-phenyltetrahydro-3′H-spiro[piperidine-4,2′-pyrrolo[2,1-b] [1,3]oxazol]-3′-one], the concentration for a half-maximal effect (EC50) turned out to be 552 nM.
Under `O=C1N2[C@@H](CC[C@H]2c2cncc(F)c2)OC12CCN(c1ccnc3c(F)cnn13)CC2` [Example 4.49, (5′S,7a′R)-1-(3-fluoropyrazolo[1,5-a]pyrimidin-7-yl)-5′-(5-fluoropyridin-3-yl)tetrahydro-3′H-spiro[piperidine-4,2′-pyrrolo[2,1-b] [1,3]oxazol]-3′-one] stands below 25 nM; under `Cc1onc(C(=O)N2CCC3(CC2)O[C@@H]2CC[C@@H](c4cc(F)cc(F)c4)N2C3=O)c1C` [Example 6.57, (5′S,7a′R)-5′-(3,5-difluorophenyl)-1-(4,5-dimethyl-1,2-oxazole-3-carbonyl) tetrahydro-3′H-spiro [piperidine-4,2′-pyrrolo[2,1-b][1,3]-oxazol]-3′-one], 426 nM.
The figure for `Cn1ccc(C(=O)N2CCC3(CC2)O[C@@H]2CC[C@@H](c4cc(F)cc(F)c4)N2C3=O)c1` [Example 5.47, (5′S,7a′R)-5′-(3,5-difluoro-phenyl)-1-(1-methyl-1H-pyrrole-3-carbonyl)tetra-hydro-3′H-spiro[piperidine-4,2′-pyrrolo[2,1-b]oxazol]-3′-one] is 26.9 nM; for `Cc1cccc(C(=O)N2CCC3(CC2)O[C@@H]2CC[C@@H](c4cc(F)cc(F)c4)N2C3=O)n1` [Example 6.13, (5′S,7a′R)-5′-(3,5-difluorophenyl)-1-(6-methylpyridine-2-carbonyl)tetrahydro-3′H-spiro[piperidine-4,2′-pyrrolo[2,1-b] [1,3]oxazol]-3′-one] it is 60 nM.
The figure for `O=C1N2[C@@H](CC[C@H]2c2ccccc2)OC12CCN(c1cc(-n3cccn3)ncn1)CC2` [Example 4.174, (5′S,7a′R)-5′-phenyl-1-[6-(1H-pyrazol-1-yl)pyrimidin-4-yl]tetrahydro-3′H-spiro[piperidine-4,2′-pyrrolo[2,1-b] [1,3]oxazol]-3′-one] is below 25 nM; for `COc1nccc(N2CCC3(CC2)O[C@@H]2CC[C@@H](c4ccccc4)N2C3=O)n1` [Example 4.17, (5′S,7a′R)-1-(2-methoxypyrimidin-4-yl)-5′-phenyltetrahydro-3′H-spiro[piperidine-4,2′-pyrrolo[2,1-b] [1,3]oxazol]-3′-one] it is below 25 nM.
